Data published in US8741889B2, “Method of treating non-small cell lung cancer and colon cancer with gamma-secretase inhibitor” (Hoffmann-La Roche Inc, priority 2008, dated 2014).
Read-outs that look alike come from different tables or passages of the source.

Tests used:
[1] = test system: A549 cells; test: FACS cell cycle analysis in A549 cells; assay type: cell-based, human
Method: The A549 cell line was obtained from the American Tissue Culture Collection (ATCC), Manassas, Va. and maintained in Ham's media supplemented with 10% heat-inactivated Fetal Bovine Serum (HI-FBS; GIBCO/BRL, Gaithersburg, Md.) and 2 mM L-glutamine (GIBCO/BRL). 1×10^6 A549 cells were seeded in […] plates for FACS analysis and 3×10^5 cells per well were seeded in 6-well plate for Western blot analysis. Cells were allowed to attach for 24 hours and then treated with compound (1) compound at the following concentrations: 0.1, 0.25, 0.5, 1, 2.5 and 5 μM. Cells were incubated for either 72 or 120 hours and collected for FACS analysis.
Cells were incubated with compound (1) for 72 or 120 hours, harvested by scraping, washed twice in phosphate-buffered saline (PBS), spun down at 1.5×10^3 rpm, and fixed at −20° C. overnight with 70% ethanol. Cells were then analyzed using MPM2-FITC and propidium iodide (PI) double staining (Becton Dickinson, San Jose, Calif.). Briefly, cells were washed twice with cold PBS containing 0.05% Tween-20 (PBST), incubated for 2 hours with anti-Phospho Ser/Thr MPM2 antibody (#05-368, Upstate/Millipore, Bullerica, Mass.), washed with PBST again, incubated in the dark with secondary IgG-FITC antibody (#AP308F, Chemicon, Temecula, Calif.), washed with PBST and incubated with PI/RNase solution (Becton Dickinson, San Jose, Calif.) for additional 30 min at 37° C.
Samples were analyzed on a FACScan flow cytometer (Becton Dickinson, San Jose, Calif.) equipped with a 488 nm argon ion laser. Green fluorescein isothiocyanate (FITC) fluorescence was collected with a 530/30 nm bandpass filter using logarithmic amplification and orange emission from propidium iodide (PI) was filtered through a 585/42 nm bandpass filter using linear amplification. A minimum of 20,000 events was collected on each sample. Cell cycle analysis of DNA histograms was performed with FlowJo software (Tree Star Inc., Ashland, Oreg.).

[2] = test system: truncated human Notch 1 processing; test: Cellular Notch luciferase reporter assay in HEK293 cells; assay type: cell-based
Method: Multiple in vitro assays were utilized to characterize the potency and selectivity of compound (1). The primary in vitro assay uses cell-free membrane preparations to provide the -secretase enzyme complex as an in vitro assay. […] The cellular processing of APP is measured using an ELISA-based readout. HEK293 cells have been engineered to over-express APP. Processing is measured by an ELISA-based quantitation of the A 1-40 secretase product. Cellular Notch inhibitory activity is measured using HEK293 cell line stably expressing a truncated human Notch 1 fused in its intracellular domain to a VP16/[…] transcriptional activator, which drives a firefly luciferase gene Inhibition of Notch processing produces a reduction in luciferase reporter activity as measured by its chemo luminescence.

[3] = in vivo
Method: Treatment began on Sep. 12, 2006 (day 26 post tumor cell implant). Compound (1) and vehicle were dosed as a suspension using a sterile 1 cc syringe and 18-gauge gavage needle (0.2 ml/animal) once (qd) or twice per day (bid) 8 hours apart for either 7, 14 or 21 days out of a 21 day schedule. For animals dosed for 7 days (7+/14−), treatment ended on Sep. 19, 2006 (day 33 post tumor cell implant). These mice were re-treated on day 67 with the same dose of compound (1) for another 7 days until day 74. For animals dose for 14 days (14+/7−) treatment ended on Sep. 26, 2006 (day 40 post tumor cell implant), and for animals dosed for 21 days, treatment ended on Oct. 3, 2006 (day 47 post tumor cell implant).
Weight loss was graphically represented as percent change in mean group body weight, using the formula: ((W−W0)/W0)×100, where ‘W’ represents mean body weight of the treated group at a particular day, and ‘W0’ represents mean body weight of the same treated group at initiation of treatment.

[4] = Plasma drug exposure in nude mice; assay type: in vivo; conditions: for Cmax / AUC(0-t): po, 10 mg/kg
Method: Plasma samples were prepared and analyzed for compound (1) by LC/MS/MS. Mean plasma concentrations were calculated from 2 animals/group/time point. Plasma samples with concentration below the limit of quantification (<12.5 ng/ml) were set to zero. The pharmacokinetic parameters were estimated from the mean plasma concentration data. Sampling times were reported as nominal time. The pharmacokinetic parameters reported are the maximum plasma concentration (Cmax), the area under the plasma concentration-time curve from zero to 8 hr (AUC0-8 hr), and dose normalized AUC (AUC0-8 hr/Dose). The Cmax values were taken directly from the plasma concentration-time profiles […] without any extrapolation. The AUC was calculated using the linear trapezoidal rule.

[5] = nude, mouse, in vivo, maximum tolerated dose (MTD)

CC(C)(C(=O)NCC(F)(F)C(F)(F)F)C(=O)N[C@@H]1C(=O)Nc2ccccc2-c2ccccc21 [Compound (1), 2,2-Dimethyl-N—((S)-6-oxo-6,7-dihydro-5H-dibenzo[b,d]azepin-7-yl)-N′-(2,2,3,3,3-pentafluoro-propyl)-malonamide]
G1, % ([1]; 0.10 μM, 72 hrs): 63.1% | G2/M, % ([1]; 0.10 μM, 72 hrs): 23.3% | subG1, % ([1]; 0.10 μM, 72 hrs): 6.5% | G1, % ([1]; 0.10 μM, 120 hrs): 59.0% | G2/M, % ([1]; 0.10 μM, 120 hrs): 24.1% | subG1, % ([1]; 0.10 μM, 120 hrs): 6.8% | G1, % ([1]; 0.25 μM, 72 hrs): 64.8% | G2/M, % ([1]; 0.25 μM, 72 hrs): 20.3% | subG1, % ([1]; 0.25 μM, 72 hrs): 5.9% | G1, % ([1]; 0.25 μM, 120 hrs): 61.1% | G2/M, % ([1]; 0.25 μM, 120 hrs): 23.8% | subG1, % ([1]; 0.25 μM, 120 hrs): 6.7% | G1, % ([1]; 0.50 μM, 72 hrs): 66.6% | G2/M, % ([1]; 0.50 μM, 72 hrs): 19.4% | subG1, % ([1]; 0.50 μM, 72 hrs): 4.3% | G1, % ([1]; 0.50 μM, 120 hrs): 58.6% | G2/M, % ([1]; 0.50 μM, 120 hrs): 23.3% | subG1, % ([1]; 0.50 μM, 120 hrs): 9.6% | G1, % ([1]; 1.0 μM, 72 hrs): 64% | G2/M, % ([1]; 1.0 μM, 72 hrs): 21.5% | subG1, % ([1]; 1.0 μM, 72 hrs): 6.6% | G1, % ([1]; 1.0 μM, 120 hrs): 60.9% | G2/M, % ([1]; 1.0 μM, 120 hrs): 19.8% | subG1, % ([1]; 1.0 μM, 120 hrs): 8.0% | G1, % ([1]; 5.0 μM, 72 hrs): 64.9% | G2/M, % ([1]; 5.0 μM, 72 hrs): 20% | subG1, % ([1]; 5.0 μM, 72 hrs): 8.4% | G1, % ([1]; 5.0 μM, 120 hrs): 58.7% | G2/M, % ([1]; 5.0 μM, 120 hrs): 18.3% | subG1, % ([1]; 5.0 μM, 120 hrs): 13.7% | IC50 [2]: 5 nM | animal deaths ([3]; 30 mg/kg bid for 21 days, 10/group): two | mice died ([3]; 60 mg/kg bid for 14 days, 10/group): four | mice died ([3]; 60 mg/kg bid for 21 days, 10/group): seven | mice died ([3]; 60 mg/kg qd for 21 days, 10/group): three | maximum tolerated dose (MTD) ([3]; nude, mouse, in vivo, 21 days): 10 mg/kg | MTD at 7 days [3, 5]: 60 mg/kg | MTD at 14 days [3, 5]: 30 mg/kg | dose proportionality of plasma exposure ([4]; independent PK study in nude mice, up to 30 mg/kg): excellent dose proportionality | oral bioavailability ([4]; mouse): moderate to high | Cmax ([4]; nude, mouse, plasma, 10 mg/kg po qd, Day 21 (chronic dosing)): 708 ng/mL | AUC(0-t) ([4]; nude, mouse, plasma, 10 mg/kg po qd, Day 21 (chronic dosing), read-out: AUC0-8 hr): 923 ng·h/mL | Cmax ([4]; nude, mouse, plasma, 10 mg/kg po, Day 1 (single dose, naïve mice)): 559 ng/mL | AUC(0-t) ([4]; nude, mouse, plasma, 10 mg/kg po, Day 1 (single dose, naïve mice), read-out: AUC0-8 hr): 1280 ng·h/mL | AUC(0-t) ([4]; nude, mouse, plasma, oral daily dosing of 10 mg/kg, read-out: Exposures (AUC24h) producing efficacy): ~1100 ng·h/mL | AUC ([4]; nude, mouse, plasma, oral daily dosing of 10 mg/kg, read-out: Exposures producing efficacy (AUC24/day)): ~1100 ng·h/mL
